This is an account of results in PMC4658577 (Frontiers in Plant Science, 2015).

Type in all cases: cell-based
In test [1] the target is T1, ANO1/CaCC (TMEM16A) (Homo sapiens, UniProt Q5XXA6).
T1 construct: ANO1 cDNA
T1 sequence (Q5XXA6 1-986): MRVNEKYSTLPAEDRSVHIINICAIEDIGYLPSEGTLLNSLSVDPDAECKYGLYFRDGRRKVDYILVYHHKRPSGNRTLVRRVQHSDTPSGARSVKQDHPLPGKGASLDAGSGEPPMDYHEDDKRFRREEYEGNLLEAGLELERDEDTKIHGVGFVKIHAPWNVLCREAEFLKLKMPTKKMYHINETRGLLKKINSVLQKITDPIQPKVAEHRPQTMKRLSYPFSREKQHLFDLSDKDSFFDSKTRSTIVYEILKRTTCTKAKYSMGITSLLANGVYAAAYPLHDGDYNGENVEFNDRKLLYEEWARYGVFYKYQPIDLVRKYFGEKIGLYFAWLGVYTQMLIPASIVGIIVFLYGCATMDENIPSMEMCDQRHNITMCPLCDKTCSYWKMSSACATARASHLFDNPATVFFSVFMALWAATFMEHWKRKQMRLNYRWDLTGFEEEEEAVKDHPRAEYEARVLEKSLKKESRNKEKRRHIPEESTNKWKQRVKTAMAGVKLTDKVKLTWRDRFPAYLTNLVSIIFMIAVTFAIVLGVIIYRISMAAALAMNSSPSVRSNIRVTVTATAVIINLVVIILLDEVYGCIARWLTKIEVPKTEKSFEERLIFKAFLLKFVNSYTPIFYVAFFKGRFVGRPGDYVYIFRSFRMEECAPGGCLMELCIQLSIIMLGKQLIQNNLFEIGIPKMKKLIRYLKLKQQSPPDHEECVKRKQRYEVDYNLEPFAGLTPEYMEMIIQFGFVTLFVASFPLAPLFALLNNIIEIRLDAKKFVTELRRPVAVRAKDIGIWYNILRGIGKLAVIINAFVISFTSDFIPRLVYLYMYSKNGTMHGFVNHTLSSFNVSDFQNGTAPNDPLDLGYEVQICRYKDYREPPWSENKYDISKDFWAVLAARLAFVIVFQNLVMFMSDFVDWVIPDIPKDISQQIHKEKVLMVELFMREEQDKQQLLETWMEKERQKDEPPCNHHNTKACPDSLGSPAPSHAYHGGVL
Put plainly: Eact-induced short-circuit current in ANO1-expressing FRT cells, […].

For test [2], the target named is T1, ANO1/CaCC (TMEM16A). Put plainly: Eact-induced short-circuit current in ANO1-expressing FRT cells.
In test [3] the target is T2, cystic fibrosis transmembrane conductance regulator (CFTR) (Homo sapiens, UniProt P13569).
T2 construct: human wild-type CFTR cDNA
T2 sequence (P13569 whole entry): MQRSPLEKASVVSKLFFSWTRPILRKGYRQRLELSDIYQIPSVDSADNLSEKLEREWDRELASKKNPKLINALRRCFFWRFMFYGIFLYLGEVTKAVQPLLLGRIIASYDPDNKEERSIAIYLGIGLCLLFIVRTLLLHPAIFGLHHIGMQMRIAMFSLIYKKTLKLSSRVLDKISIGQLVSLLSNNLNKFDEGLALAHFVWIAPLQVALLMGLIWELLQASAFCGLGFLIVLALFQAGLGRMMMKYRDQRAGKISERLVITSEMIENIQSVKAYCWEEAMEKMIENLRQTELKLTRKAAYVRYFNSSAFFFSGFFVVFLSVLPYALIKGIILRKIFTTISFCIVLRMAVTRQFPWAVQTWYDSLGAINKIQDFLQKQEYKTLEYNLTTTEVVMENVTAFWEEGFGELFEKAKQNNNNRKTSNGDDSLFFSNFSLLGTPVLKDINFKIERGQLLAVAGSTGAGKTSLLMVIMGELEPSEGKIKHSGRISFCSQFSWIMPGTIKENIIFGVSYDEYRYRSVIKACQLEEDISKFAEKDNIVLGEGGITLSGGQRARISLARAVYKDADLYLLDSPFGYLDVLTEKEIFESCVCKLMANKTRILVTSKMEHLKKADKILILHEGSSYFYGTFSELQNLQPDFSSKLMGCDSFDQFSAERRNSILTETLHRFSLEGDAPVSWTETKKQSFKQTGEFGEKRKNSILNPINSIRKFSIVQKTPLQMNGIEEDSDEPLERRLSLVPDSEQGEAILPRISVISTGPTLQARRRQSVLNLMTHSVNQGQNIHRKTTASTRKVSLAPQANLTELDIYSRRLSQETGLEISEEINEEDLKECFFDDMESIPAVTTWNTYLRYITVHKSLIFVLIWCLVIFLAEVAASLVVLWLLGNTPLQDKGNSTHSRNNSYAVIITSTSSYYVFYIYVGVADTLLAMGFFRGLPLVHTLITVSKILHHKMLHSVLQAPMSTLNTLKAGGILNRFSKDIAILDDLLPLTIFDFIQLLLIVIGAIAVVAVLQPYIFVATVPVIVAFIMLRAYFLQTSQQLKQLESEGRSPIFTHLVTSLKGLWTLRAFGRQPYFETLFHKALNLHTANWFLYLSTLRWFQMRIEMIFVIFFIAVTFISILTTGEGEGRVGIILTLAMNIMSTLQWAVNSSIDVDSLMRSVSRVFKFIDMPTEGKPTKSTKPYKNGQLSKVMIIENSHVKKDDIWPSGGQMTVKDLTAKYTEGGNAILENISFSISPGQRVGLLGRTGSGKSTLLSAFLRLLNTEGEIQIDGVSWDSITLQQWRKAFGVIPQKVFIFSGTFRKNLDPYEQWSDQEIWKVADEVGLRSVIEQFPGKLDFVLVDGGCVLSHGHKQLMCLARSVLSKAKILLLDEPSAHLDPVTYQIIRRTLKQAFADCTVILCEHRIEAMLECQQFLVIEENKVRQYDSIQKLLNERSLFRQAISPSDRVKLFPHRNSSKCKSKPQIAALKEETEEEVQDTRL
Nature of the test: gradient concentrations inhibiting lignan-activated CFTR iodide influx in FRT cells.

Molecules are shown by their SMILES.

Regarding `CCc1c(C)nc(SCC(=O)Nc2nc(-c3ccc(OC)cc3)cs2)[nH]c1=O` [16A, T16Ainh-A01], the “Eact-induced short-circuit current in ANO1-expressing FRT cells, 30 μM” value on ANO1/CaCC (TMEM16A) [1] was “Eact-induced ANO1-mediated short-circuit current was completely abolished by the specific inhibitor of ANO1 T16Ainh-A01”.

As a reminder, the IC50 is the midpoint of a concentration-inhibition curve. Lower therefore signals greater potency. In turn, `COc1ccc([C@H]2OC[C@H]3[C@@H]2CO[C@@H]3c2ccc(OC)c(OC)c2)cc1OC` [eudesmin] had a half-inhibitory concentration (IC50) at ANO1/CaCC (TMEM16A) [2] of 200 µM.

`O=C(O)c1ccc(/C=C2\SC(=S)N(c3cccc(C(F)(F)F)c3)C2=O)cc1` [compound 172, CFTRinh-172]: the “gradient concentrations inhibiting lignan-activated CFTR iodide influx in FRT ce” value in test [3] is reported as “activation effect of these compounds could be inhibited by gradient concentrations of the known CFTR inhibitor CFTRinh-172”.
